Measurements taken from patent publication US8916551B2, “Heterocyclic compound and use thereof” (Takeda Pharmaceutical Company Limited, priority 2010, dated 2014).

Assays:
[1] = system: methamphetamine (MAP)-induced hyperlocomotion in mice; assay: Inhibition of methamphetamine (MAP)-induced hyperlocomotion; format: in vivo; details: male ICR mice; compound 10 mg/kg p.o. 60 min before MAP 2 mg/kg s.c.; counts 120 min after MAP
Experimental: Male ICR mice were supplied by CLEA Japan, Inc (Japan). After arrival to the vivarium, animals were allowed a minimum of 1 week for acclimation. They were housed under a 12:12-h light/dark cycle in a temperature- and humidity-controlled laboratory and allowed food and water ad libitum.
A test compound was suspended in 0.5% methylcellulose in distilled water and orally administered (p.o.). Methamphetamine (Dainippon Sumitomo Pharma Co., Ltd.) was dissolved in saline and subcutaneously administered (s.c.). All drugs were dosed in a volume of 10 mL/kg body weight for mice.
The widely used animal models of psychosis have been the measurement of the extent of hyperlocomotion induced by psychostimulants (e.g., amphetamine, cocaine, methamphetamine, MK-801 and phencyclidine) in rodents (Psychopharmacology 1999, vol. 145: 237-250). 4 compounds (A, B, C, D) were tested for its ability to antagonize MAP-induced hyperlocomotion in mice. Male ICR mice were habituated in the locomotor chambers with infrared sensors (BrainScienceldea Co., Ltd. Japan) to the experiment. After the habituation, animals were treated with either vehicle or the compounds (10 mg/kg, p.o.), and MAP (2 mg/kg, s.c.) was administrated 60 min later. Locomotion activities were measured, and accumulated counts (120 min after administration of MAP) were calculated in each treatment group. All data were represented as means plus the standard errors of the means (n=3-9) and analyzed using Student's t-test with significance set at **P<0.01 and ***P<0.001 or Welch's t-test with significance set at ^$P<0.05, ^$$P<0.01 and ^$$$P<0.001.

[2] = biological target: T1, AMPA receptor (human GluR1 flip/stargazin expressed in CHO-K1 cells) (Homo sapiens, UniProt P42261); assay: AMPA receptor function enhancing activity using calcium influx as index; format: cell-based; details: 100% = 3 mM glutamic acid + 300 μM cyclothiazide, 0% = 3 mM glutamic acid only
T1 construct: expressed in transfected cells; host or cells: CHO-K1
In short: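 CHO-K1 clone stably co-expressing human GluR1 flip and stargazin, loaded with Calcium 4 dye plus probenecid. Compound at 30 μM was added with glutamate (3 mM final) and fluorescence change followed over 3 min. Activity is expressed as % of the 3 mM glutamate plus 300 μM cyclothiazide response, with glutamate alone as 0%.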

[3] = test compound 30 μM with 3 mM glutamic acid, change in fluorescence level in 3 min
[4] = test compound 30 μM with glutamic acid final 3 mM, change in fluorescence in 3 min

T1 sequence (P42261 19-906 isoform P42261-2 limits assumed): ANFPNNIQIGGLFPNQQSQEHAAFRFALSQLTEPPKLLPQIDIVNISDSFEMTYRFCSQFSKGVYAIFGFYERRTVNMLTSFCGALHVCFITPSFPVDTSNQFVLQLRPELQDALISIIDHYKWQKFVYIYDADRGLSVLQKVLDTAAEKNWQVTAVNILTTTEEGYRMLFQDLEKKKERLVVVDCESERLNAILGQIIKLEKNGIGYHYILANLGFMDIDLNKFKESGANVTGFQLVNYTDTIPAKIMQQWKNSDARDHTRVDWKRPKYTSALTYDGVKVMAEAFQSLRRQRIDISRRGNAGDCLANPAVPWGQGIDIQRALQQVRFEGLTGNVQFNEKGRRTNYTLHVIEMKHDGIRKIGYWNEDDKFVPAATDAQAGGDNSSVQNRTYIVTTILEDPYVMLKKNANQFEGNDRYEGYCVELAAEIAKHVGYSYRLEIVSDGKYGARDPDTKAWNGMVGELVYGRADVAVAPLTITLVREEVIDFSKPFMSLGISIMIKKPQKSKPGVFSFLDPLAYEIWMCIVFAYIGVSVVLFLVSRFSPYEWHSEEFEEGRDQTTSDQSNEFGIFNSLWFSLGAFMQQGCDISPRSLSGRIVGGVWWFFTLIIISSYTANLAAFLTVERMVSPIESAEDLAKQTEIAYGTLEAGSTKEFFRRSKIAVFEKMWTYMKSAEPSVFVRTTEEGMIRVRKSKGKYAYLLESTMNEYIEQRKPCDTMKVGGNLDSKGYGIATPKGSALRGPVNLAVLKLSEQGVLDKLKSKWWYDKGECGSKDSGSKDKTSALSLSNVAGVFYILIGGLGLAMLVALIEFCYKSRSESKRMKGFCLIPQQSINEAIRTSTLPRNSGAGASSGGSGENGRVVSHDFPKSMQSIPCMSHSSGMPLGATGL
T1 sequence (Q9Y698 whole entry partner): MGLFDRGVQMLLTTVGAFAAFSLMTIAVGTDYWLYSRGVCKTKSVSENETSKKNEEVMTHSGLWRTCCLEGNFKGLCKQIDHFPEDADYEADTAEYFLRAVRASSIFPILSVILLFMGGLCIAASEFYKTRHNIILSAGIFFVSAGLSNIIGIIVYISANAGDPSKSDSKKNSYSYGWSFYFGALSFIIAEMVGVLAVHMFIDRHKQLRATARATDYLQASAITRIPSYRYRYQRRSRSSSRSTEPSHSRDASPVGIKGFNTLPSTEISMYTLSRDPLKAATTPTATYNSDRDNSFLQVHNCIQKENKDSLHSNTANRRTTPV

In the case of CC1=CN2CCS(=O)(=O)N=C2C(c2ccc(OC3CCCCC3)cc2)=N1 [C, 9-[4-(cyclohexyloxy)phenyl]-7-methyl-3,4-dihydropyrazino[2,1-c][1,2,4]thiadiazine 2,2-dioxide], the “inhibition of MAP-induced hyperlocomotion (accumulated locomotion counts 0-120 min)” value (shortened to “inhibition”) [1] is reported as “significant inhibition”.

For Cc1ccc(Oc2ccc(C3=CC=CN4CCS(=O)(=O)N=C34)cc2)cc1 [B, 9-[4-(4-methylphenoxy)phenyl]-3,4-dihydropyrido[2,1-c][1,2,4]thiadiazine 2,2-dioxide], the “inhibition” value [1] was “significant inhibition”.

With O=S1(=O)CCN2C=CC=C(c3ccc(Oc4ccccc4)cc3)C2=N1 [A, 9-(4-phenoxyphenyl)-3,4-dihydropyrido[2,1-c][1,2,4]thiadiazine 2,2-dioxide] the “inhibition” value [1] was “significant inhibition”.

In the case of O=S1(=O)CCN2C=CC=C(c3ccc(OC4CCCCC4)cc3)C2=N1 [D, 9-[4-(cyclohexyloxy)phenyl]-3,4-dihydropyrido[2,1-c][1,2,4]thiadiazine 2,2-dioxide], the “inhibition” value [1] is reported as “significant inhibition”.

For O=S1(=O)CCN2C=CC=C(c3ccc(OC4CCCCC4)cc3)C2=N1 [Example 182, 9-[4-(cyclohexyloxy)phenyl]-3,4-dihydropyrido[2,1-c][1,2,4]thiadiazine 2,2-dioxide], the melting point was 272 to 274 °C and the “activity (%)” value [2, 3] was 80%.

For O=S1(=O)CCN2CCCC(c3ccc(C(F)(F)F)cc3)C2=N1 (stereo not shown) [Example 175, 9-[4-(trifluoromethyl)phenyl]-3,4,6,7,8,9-hexahydropyrido[2,1-c][1,2,4]thiadiazine 2,2-dioxide], the melting point was 226 to 227 °C and the “activity (%)” value [2, 3] was 53%.

For O=S1(=O)CCN2CCCC(c3ccc(Oc4cccc(Cl)c4)cc3)C2=N1 (stereo not shown) [Example 201, 9-[4-(3-chlorophenoxy)phenyl]-3,4,6,7,8,9-hexahydropyrido[2,1-c][1,2,4]thiadiazine 2,2-dioxide], the melting point was 165 to 167 °C and the “activity (%)” value [2, 3] was 74%.

In the case of O=S1(=O)CCN2C=C(Cl)C=C(c3ccc(Oc4ccnc(C(F)(F)F)c4)cc3)C2=N1 [Example 79, 7-chloro-9-(4-{[2-(trifluoromethyl)pyridin-4-yl]oxy}phenyl)-3,4-dihydropyrido[2,1-c][1,2,4]thiadiazine 2,2-dioxide], the melting point is reported as 239 to 240 °C and the “activity (%)” value [2, 4] is reported as 90%.

With O=S1(=O)CCN2CCCC(c3ccc(Oc4ccc(Cl)c(Cl)c4)cc3)C2=N1 (stereo not shown) [Example 151, 9-[4-(3,4-dichlorophenoxy)phenyl]-3,4,6,7,8,9-hexahydropyrido[2,1-c][1,2,4]thiadiazine 2,2-dioxide] the melting point was 195 to 197 °C and the “activity (%)” value [2, 3] was 67%.

With Cc1ccc(Oc2ccc([C@@H]3CCCN4CCS(=O)(=O)N=C34)cc2)cc1C [Example 216, (9S)-9-[4-(3,4-dimethylphenoxy)phenyl]-3,4,6,7,8,9-hexahydropyrido[2,1-c][1,2,4]thiadiazine 2,2-dioxide] the melting point was 170 to 171 °C and the “activity (%)” value [2, 3] was 71%.

With COC1=C(c2ccc(Oc3ccccc3)cc2)C2=NS(=O)(=O)CCN2C=C1 [Example 204, 8-methoxy-9-(4-phenoxyphenyl)-3,4-dihydropyrido[2,1-c][1,2,4]thiadiazine 2,2-dioxide] the melting point was 269 to 270 °C and the “activity (%)” value [2, 3] was 70%.

For CC(C)c1ccc(OCC2=CC=CN3CCS(=O)(=O)N=C23)cc1 [Example 61, 9-{[4-(1-methylethyl)phenoxy]methyl}-3,4-dihydropyrido[2,1-c][1,2,4]thiadiazine 2,2-dioxide], the melting point was 212 to 214 °C and the “activity (%)” value [2, 4] was 75%.

For O=S1(=O)CCN2C=CC(Cl)=C(c3ccc(Oc4ccccc4)cc3)C2=N1 [Example 205, 8-chloro-9-(4-phenoxyphenyl)-3,4-dihydropyrido[2,1-c][1,2,4]thiadiazine 2,2-dioxide], the melting point was 283 to 284 °C and the “activity (%)” value [2, 3] was 67%.

In the case of CCc1ccc(Oc2ccc([C@@H]3CCCN4CCS(=O)(=O)N=C34)cc2)cc1 [Example 218, (9S)-9-[4-(4-ethylphenoxy)phenyl]-3,4,6,7,8,9-hexahydropyrido[2,1-c][1,2,4]thiadiazine 2,2-dioxide], the melting point is reported as 156 to 157 °C and the “activity (%)” value [2, 3] is reported as 74%.

For O=S1(=O)CCN2C=C(Cl)C=C(c3ccc(Oc4ncccc4C(F)(F)F)cc3)C2=N1 [Example 78, 7-chloro-9-(4-{[3-(trifluoromethyl)pyridin-2-yl]oxy}phenyl)-3,4-dihydropyrido[2,1-c][1,2,4]thiadiazine 2,2-dioxide], the melting point was 264 to 265 °C and the “activity (%)” value [2, 4] was 72%.

For O=S1(=O)CCN2C=CC=C(c3ccc(OC(F)(F)F)cc3)C2=N1 [Example 34, 9-[4-(trifluoromethoxy)phenyl]-3,4-dihydropyrido[2,1-c][1,2,4]thiadiazine 2,2-dioxide], the melting point was 249 to 251 °C and the “activity (%)” value [2, 4] was 78%.
